Data as given in patent US20250129033A1, “METAP2 INHIBITORS AND USES THEREOF” (Yissum Research Development Company of the Hebrew …, priority 2022, published 2025).

Tests used:
MetAP2 = MetAP2 (Homo sapiens, UniProt P50579); test: MetAp2 enzymatic assay, L-Met-AMC substrate (Experimental Set-Up 1); format: biochemical
Description: Quantitative MetAP2 activity assay by N-terminal cleavage of substrate 7-amino-4-methyl-courmarin was performed as follows: The activity of MetAP2 was measured using fluorescent peptide substrate L-Met-AMC (Santa Cruz Biotechnology, Inc, sc-207807) as described by Garrabrant et al. (Angiogenesis 7: 91-96, 2004). Briefly, the reaction (100 μl final) was initiated by adding 0.5 μg of MetAP2 or 5 μg HUVEC homogenate to reaction buffer containing 50 mM HEPES (pH 7.4), 100 mM NaCl, 0.1 mM CoCl2, 1 mg/ml PEG6000, and 250 μM L-Met-AMC substrate. The assay was prepared in black flat-bottomed 96-well microtiter plates and fluorescence was measured every 20 s over a period of 60 min at 25° C. using a microplate fluorometer (Bioteck, SynergyHT), with excitation and emission wavelengths set at 360 and 440 nm respectively. As a control the inhibition of the enzyme was obtained by incubating it with TNP-470 for 15 min before the addition of the substrate.
The inhibitory effect of the compounds were tested in MetAp2 enzymatic assay.

[1] = target: T1, MetAp2 in MDA-MB-231 cancer cells (Homo sapiens, UniProt P50579); test: MetAp2 enzymatic activity in MDA-MB-231 cell homogenate; format: biochemical; details: 2.5 μM
T1 construct: host or cells: MDA-MB-231 cell homogenate (RIPA supernatant, 5 µg protein)
Description: A375 and MDA-MB-231 were sub cultivated using trypsin, then centrifuge and counted. To obtain a homogenate containing an equivalent cell number, cells were resuspended in an appropriate volume of cold RIPA containing a protease inhibitor cocktail. Insoluble cellular components were removed by centrifugation at 15,000 RPM for 10 min at 4° C. The protein content of the supernatant was determined according to the Bradford protein assay using BSA as the standard.
The enzymatic assay was performed using 5 μg protein per sample as described previously. […] An increase of fluorescence, due to substrate degradation during the enzymatic assay, was measured every 20 seconds for 1 h and 30 min at 37° C. using a plate reader (Wallac 1420 VICTOR plate reader, Perkin-Elmer Life Sciences, USA). […]
A375 and MDA-MB-231 were sub-cultivated using trypsin, then centrifuged and counted. […] The protein content of the supernatant was determined according to the Bradford protein assay using BSA as the standard. […] An increase of fluorescence, due to substrate degradation during the enzymatic assay, was measured every 20 seconds for 1 h and 30 min at 37° C. using a plate reader (Wallac 1420 VICTOR plate reader, Perkin-Elmer Life Sciences, USA). […]

HUVECs = test: HUVEC proliferation assay (MTT); format: cell-based, human; details: for reduction in HUVECs proliferation: 72 h, MTT
Description: Human Umbilical Vein Endothelial Cells (HUVECs) or human melanoma cell line (A375) were used to validate the ability of the compound to suppress endothelial cell proliferation. Each 1500 A375 cells/well or 2000 HUVEC cells/well were seeded in a 96 wells plate and allowed to adhere to the plate for few hours. Compounds were then added to the cells at concentration range of 0.05-10 μM (<0.1% DMSO). Cells were then incubated for additional 72 hours and MTT was done (2 to 3 h at 37° C.). The dye was solubilized with DMSO and the absorbance was determined at 570 nm.
(§1) A375 were seeded (2000 cells/well) exposed to TNP-470 and to arrange concentrations of AD-3281 (1-100 μM) cells were incubated for 72 h at 37° C., After incubation, MTT (Sigma Aldrich, St. Louis City, MO, USA) was added (0.5 mg/mL) into each well for viability detection and incubated at 37° C. and 5% CO2 for 40 minutes. The absorbance was measured at 540 nm using a plate reader (Wallac 1420 VICTOR plate reader, Perkin-Elmer Life Sciences, USA). The proliferation of HUVECs was measured under the same conditions. HUVECs were seeded (3000 cells/well) in 96-well plates
To further verify the inhibition activity of encapsulated AD-3281 in PLGA nanoparticles HUVECS and A375 were exposed to different concentrations of nanoparticles equivalent to 50-1000 nM free AD-3281 (0.2-4.16 mg/ml nanoparticles) empty nanoparticles were added as a control. The effect of AD-3281 on HUVECs growth was evaluated after 5 days.
as §1, with “after” for “After”, “plates. […]” for “plates”

T1 sequence (P50579 whole entry): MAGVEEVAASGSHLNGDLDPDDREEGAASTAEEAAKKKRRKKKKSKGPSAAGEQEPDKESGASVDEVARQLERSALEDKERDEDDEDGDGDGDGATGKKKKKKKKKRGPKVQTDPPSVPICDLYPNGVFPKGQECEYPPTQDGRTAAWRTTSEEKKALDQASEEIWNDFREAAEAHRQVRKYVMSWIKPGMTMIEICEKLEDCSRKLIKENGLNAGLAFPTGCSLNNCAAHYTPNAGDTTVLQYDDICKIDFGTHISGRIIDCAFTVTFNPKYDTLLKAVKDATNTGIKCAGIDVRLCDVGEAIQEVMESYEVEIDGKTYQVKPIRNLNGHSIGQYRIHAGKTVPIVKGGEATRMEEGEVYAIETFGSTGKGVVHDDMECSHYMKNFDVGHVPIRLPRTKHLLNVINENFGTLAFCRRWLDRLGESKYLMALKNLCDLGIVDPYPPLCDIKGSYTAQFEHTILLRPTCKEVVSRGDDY
Sequence of MetAP2 (P50579 whole entry): as above

inhibitory effect in MetAp2 enzymatic assay (ranking among compounds) (MetAP2): most active
inhibition of MetAp2 activity in MDA-MB-231 after 10 minutes ([1]; 10 minutes of exposure): Significant inhibition
reduction of MetAp2 enzymatic activity in MDA-MB-231 ([1]; over the course of 1 h): 80%
Compound: COC1C(OC(=O)CC23CC4CC(CC(C4)C2)C3)CCC2(CO2)C1C1(C)OC1CC=C(C)C (stereo not drawn) [AD-3281, Fumagillol-1-adamantylacetate]
suppression of endothelial cell proliferation (ranking among compounds) (HUVECs): most active
reduction in HUVECs proliferation (HUVECs; 1 μM): 40%
reduction in HUVECs proliferation (HUVECs; 10 μM): 50%
